{"source": "paper PMC3526141", "about": "(Bioorganic & medicinal chemistry letters, 2012)", "data": [{"biological_target": "Prostate-specific membrane antigen (PSMA) (Homo sapiens, UniProt Q04609)", "sequence (Q04609 whole entry)": "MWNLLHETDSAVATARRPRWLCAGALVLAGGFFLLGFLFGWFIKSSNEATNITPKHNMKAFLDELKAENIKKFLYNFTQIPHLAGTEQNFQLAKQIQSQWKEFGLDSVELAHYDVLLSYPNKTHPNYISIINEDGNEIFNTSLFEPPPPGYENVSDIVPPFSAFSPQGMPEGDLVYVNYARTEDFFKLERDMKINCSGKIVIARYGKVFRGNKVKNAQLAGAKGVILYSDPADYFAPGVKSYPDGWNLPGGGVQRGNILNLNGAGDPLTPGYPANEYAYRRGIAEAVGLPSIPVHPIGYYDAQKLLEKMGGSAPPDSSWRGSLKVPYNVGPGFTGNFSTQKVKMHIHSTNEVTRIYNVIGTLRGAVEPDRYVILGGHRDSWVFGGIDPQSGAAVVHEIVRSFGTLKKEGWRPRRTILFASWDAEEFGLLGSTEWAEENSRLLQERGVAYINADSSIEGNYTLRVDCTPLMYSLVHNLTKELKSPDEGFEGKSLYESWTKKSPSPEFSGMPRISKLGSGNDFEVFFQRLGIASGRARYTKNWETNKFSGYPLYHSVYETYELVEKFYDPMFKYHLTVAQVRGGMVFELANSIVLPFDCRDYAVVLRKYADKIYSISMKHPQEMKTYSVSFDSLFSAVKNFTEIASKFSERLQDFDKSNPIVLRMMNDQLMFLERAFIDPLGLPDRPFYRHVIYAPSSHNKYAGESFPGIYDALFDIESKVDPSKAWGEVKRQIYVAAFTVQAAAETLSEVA", "assay": "inhibition of purified PSMA enzymatic activity", "format": "biochemical", "units": {"IC50": "nM"}, "values": [{"substance": "biotin-CTT54", "IC50": 1.21}, {"substance": "biotin-PEG4-CTT54", "IC50": 2.53}, {"substance": "biotin-PEG12-CTT54", "IC50": 10}]}]}
